{
  "source": "patent US20140180549A1",
  "about": "“AUTOMATED MACHINE FOR SELECTIVE IN SITU MANIPULATION OF PLANTS” (The Arizona Board of Regents on Behalf of the University of …, priority 2011, published 2014)",
  "system": "Lettuce seedlings",
  "assay": "Comparison of automated (machine-vision spray) and hand plant thinning",
  "type": "in vivo",
  "details": "for Time (hand laborer with hand hoe to remove weeds and lettuce plants missed during thinning): after thinning operation; for Time (hand laborer with hand hoe to remove weeds and lettuce plants missed during thinning) / Plant Count (number of live plants per acre after thinning): letters = Duncan's groups (P = 0.05); for Plant Count (number of live plants per acre after thinning) / Plant Spacing (average of the measured distance to each live plant after thinning) / machine performance as compared to hand thinning: lettuce seedlings; for Plant Count (number of live plants per acre after thinning) / Plant Spacing (average of the measured distance to each live plant after thinning): product sprayed by automated thinning machine; for Plant Spacing (average of the measured distance to each live plant after thinning): letters = Duncan's new multiple range test groups (P = 0.05); for machine performance as compared to hand thinning: liquid product sprayed by automated thinning machine",
  "text": "The machine vision system used in this example is as described in Example 1, except the spray nozzles were enclosed within a “hooded” box assembly to protect sprayed treatment from wind effects.\nLettuce seedlings were thinned either using the machine vision system with the indicated treatments. The far left column lists the seven treatments tested, including hand thinning (control) and six treatments used by the automated thinning machine. Of these six, the automated thinning machine was evaluated spraying five different liquid products (two acids, two fertilizers, and one herbicide) known to kill plants and one mechanical method (knife blade—“hula hoe” design). The second column is the cost of the material sprayed for the flow rates and travel speeds used. The third column is the average of the measured distance to each live plant after thinning. The fourth column is the number of live plants per acre after thinning. The fifth column is the time required by a hand laborer to walk through the field with a hand hoe and remove weeds in the row between crop plants and any lettuce plants missed during the thinning operation.",
  "data": [
    {"smiles": "CC(=O)O", "note": "[Acetic Acid (20%), Acetic Acid]", "values": [
      {"measurement": "Time (hand laborer with hand hoe to remove weeds and lettuce plants missed during thinning)", "result": 3.0, "unit": "cd hr/acre"},
      {"measurement": "Plant Count (number of live plants per acre after thinning)", "result": "30,181b per/acre"},
      {"measurement": "Plant Spacing (average of the measured distance to each live plant after thinning)", "result": 8.9, "unit": "b inch"}
    ]},
    {"smiles": "C[n+]1ccc(-c2cc[n+](C)cc2)cc1", "note": "[Paraquat, reference compound]", "values": [
      {"measurement": "Time (hand laborer with hand hoe to remove weeds and lettuce plants missed during thinning)", "result": 2.8, "unit": "d hr/acre"},
      {"measurement": "machine performance as compared to hand thinning", "result": "no difference"},
      {"measurement": "Plant Count (number of live plants per acre after thinning)", "result": "27,692b per/acre"},
      {"measurement": "Plant Spacing (average of the measured distance to each live plant after thinning)", "result": 9.6, "unit": "ab inch"}
    ]},
    {"smiles": "O=S(=O)(O)O", "note": "[Sulfuric Acid (10%), Sulfuric Acid]", "values": [
      {"measurement": "Time (hand laborer with hand hoe to remove weeds and lettuce plants missed during thinning)", "result": 2.7, "unit": "d hr/acre"},
      {"measurement": "machine performance as compared to hand thinning", "result": "no difference"},
      {"measurement": "Plant Count (number of live plants per acre after thinning)", "result": "26,758b per/acre"},
      {"measurement": "Plant Spacing (average of the measured distance to each live plant after thinning)", "result": 10.2, "unit": "a inch"}
    ]}
  ]
}
